Measurements taken from patent US4690939A, “Anti-hypertensive agents” (University of Miami, priority 1979, dated 1987).
Non-standard residues stand in square brackets, D forms with d. Residues, ends and D or L forms follow the SMILES beside them. No end group written: not given here. pGlu = O=C1CC[C@@H](C(=O)O)N1

Legend:
[1] = system: ACE; conditions: competitive substrates; cited from earlier work
[2] = target: T1, human urinary ACE (Homo sapiens, UniProt P12821); assay: ACE activity assay (inhibition of benzoyl-GlyHisLeu hydrolysis); type: biochemical; conditions: substrate approximately 1/2 Km (Example 1 assay), read-out: I50
T1 construct: from tissue; host or cells: human urine
T1 sequence (P12821 30-1232 limits assumed): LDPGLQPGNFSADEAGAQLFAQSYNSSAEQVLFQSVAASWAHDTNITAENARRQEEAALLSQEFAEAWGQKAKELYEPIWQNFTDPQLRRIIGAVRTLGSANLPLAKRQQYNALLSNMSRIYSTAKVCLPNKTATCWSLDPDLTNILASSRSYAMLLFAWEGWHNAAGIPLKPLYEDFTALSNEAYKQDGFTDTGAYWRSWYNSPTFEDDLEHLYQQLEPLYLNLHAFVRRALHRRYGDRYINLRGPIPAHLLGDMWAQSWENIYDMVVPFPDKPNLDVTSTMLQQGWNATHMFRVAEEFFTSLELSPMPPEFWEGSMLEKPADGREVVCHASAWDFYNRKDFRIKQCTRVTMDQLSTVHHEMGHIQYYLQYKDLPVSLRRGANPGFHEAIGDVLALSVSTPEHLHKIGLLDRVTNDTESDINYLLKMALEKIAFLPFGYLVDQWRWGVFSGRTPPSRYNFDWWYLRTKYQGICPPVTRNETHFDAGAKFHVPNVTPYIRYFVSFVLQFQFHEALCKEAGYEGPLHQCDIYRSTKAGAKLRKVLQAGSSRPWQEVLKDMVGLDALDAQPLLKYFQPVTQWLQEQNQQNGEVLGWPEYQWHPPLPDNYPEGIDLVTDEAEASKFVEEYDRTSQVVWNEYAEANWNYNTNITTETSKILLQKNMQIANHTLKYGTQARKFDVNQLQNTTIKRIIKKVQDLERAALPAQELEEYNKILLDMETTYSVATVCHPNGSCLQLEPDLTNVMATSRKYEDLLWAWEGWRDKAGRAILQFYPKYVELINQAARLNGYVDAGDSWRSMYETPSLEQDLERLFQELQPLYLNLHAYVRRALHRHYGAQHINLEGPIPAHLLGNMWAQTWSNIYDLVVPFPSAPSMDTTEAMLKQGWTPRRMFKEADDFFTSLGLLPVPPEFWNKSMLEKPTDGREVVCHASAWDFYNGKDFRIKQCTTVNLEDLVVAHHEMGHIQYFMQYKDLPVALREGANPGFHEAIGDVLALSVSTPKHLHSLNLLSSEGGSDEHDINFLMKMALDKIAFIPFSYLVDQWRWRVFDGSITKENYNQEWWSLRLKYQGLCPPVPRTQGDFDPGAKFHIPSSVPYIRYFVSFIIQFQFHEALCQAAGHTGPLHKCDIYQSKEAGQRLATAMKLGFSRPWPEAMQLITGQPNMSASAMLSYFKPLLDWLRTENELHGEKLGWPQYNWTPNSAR
Procedure: These factors include the source of enzyme, its purity, the substrate used and its concentration, and the composition of the assay buffer.
ACE activity assay. […] To initiate the assay, 40 μl of enzyme and 10 μl of water or inhibitor dissolved in water were preincubated for five minutes at 37° C. […] To terminate the reaction, 1 ml of 0.1 M HCl was added, following which 1 ml of ethyl acetate was added. The mixture was agitated on a rotary mixer and centrifuged briefly to separate the phases.
For determination of I50 values, enzyme activity in the presence of inhibitor at a series of different concentrations was compared to activity in the absence of inhibitor.

Molecule: C[C@H](NC(=O)[C@H](Cc1c[nH]c2ccccc12)NC(=O)[C@H](CCCCN)NC(=O)[C@@H]1CCC(=O)N1)C(=O)N1CCC[C@H]1C(=O)O [BPP5a] ([pGlu]KWAP-OH)
- Km relative to angiotensin I [1]: lower Km than angiotensin I

Molecule: CC(=O)N[C@@H](Cc1ccccc1)C(=O)SC[C@@H](C)C(=O)N1CCC[C@H]1C(=O)O [N^α -[3-(N^α -acetyl-L-phenylalanylthio)-2-D-methylpropanoyl]-L-proline]
- IC50 [2]: 26 nM

Molecule: RPPGFSPFR [bradykinin]
- Km relative to angiotensin I [1]: lower Km than angiotensin I
